In PubChem BioAssay (NCI):
Where “and” joins values, the source holds several entries; their conditions need not be identical. Identical values can stand only once.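 Each compound was tested at five concentrations against cells in 96-well plates for 48 hours. GI50 marks 50% less growth. Definition used: TGI = concentration required for complete inhibition of growth.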

Tests used:
Experiment in all cases: inhibition of tumour cell growth, NCI panel, 48 h
OVCAR-4 ovarian = system: OVCAR-4 ovarian
LOX IMVI melanoma = system: LOX IMVI melanoma
HCT-15 colon = system: HCT-15 colon
KM12 colon = system: KM12 colon
HCT-116 colon = system: HCT-116 colon
IGROV1 ovarian = system: IGROV1 ovarian
UACC-62 melanoma = system: UACC-62 melanoma
ACHN renal = system: ACHN renal
A549 NSCLC = system: A549 NSCLC
MALME-3M melanoma = system: MALME-3M melanoma

Structure (SMILES)	TGI (OVCAR-4 ovarian)	TGI (LOX IMVI melanoma)	TGI (HCT-15 colon)	TGI (KM12 colon)	TGI (HCT-116 colon)	TGI (IGROV1 ovarian)	GI50 (UACC-62 melanoma)	TGI (UACC-62 melanoma)	TGI (ACHN renal)	TGI (A549 NSCLC)	TGI (MALME-3M melanoma)	GI50 (OVCAR-4 ovarian)	GI50 (LOX IMVI melanoma)	GI50 (HCT-15 colon)	GI50 (KM12 colon)	GI50 (HCT-116 colon)	GI50 (IGROV1 ovarian)	GI50 (ACHN renal)	GI50 (A549 NSCLC)	GI50 (MALME-3M melanoma)
CC(=O)O[C@H]1C(=O)[C@@]2(C)C(C(OC(=O)c3ccccc3)[C@]3(O)CC(OC(=O)[C@H](OC(=O)CCC(=O)O)C(NC(=O)c4ccccc4)c4ccccc4)C(C)=C1C3(C)C)C1(OC(C)=O)COC1C[C@@H]2OC(=O)CCC(=O)O (stereo not given in full)	> 100 µM	> 100 µM	> 100 µM	> 100 µM	> 100 µM	> 100 µM	2.05 µM	29.3 µM	> 100 µM	> 100 µM	> 100 µM									
C/C(O)=C(\N=O)C(=O)NCCc1ccccc1	> 100 µM	> 58 µM	> 55.9 µM	> 100 µM	> 70.1 µM	> 100 µM		> 100 µM	> 100 µM	> 100 µM	> 100 µM									
C[C@]12CCC3[C@@H](C[C@@H]4SC(Nc5ccccc5)=N[C@@]45CC(=O)CC[C@]35C)[C@@H]1CCC2=O (stereo not given in full)	> 100 µM	10.8 µM	9.71 µM	29.3 µM	4.16 µM	> 100 µM	9.54 µM	29.6 µM	29.5 µM	> 100 µM	> 100 µM	18.9 µM	3.22 µM	2.53 µM	8.27 µM	1.91 µM	8.21 µM	7.81 µM	26.4 µM	21.2 µM
[Cl][Bi]([O]c1ccccn1)[O]c1ccccn1	> 100 µM	> 100 µM	> 100 µM	> 100 µM	> 100 µM	> 100 µM	> 100 µM	> 100 µM	> 100 µM	> 100 µM	> 100 µM	> 100 µM	> 100 µM	> 100 µM	> 100 µM	> 100 µM	> 100 µM	> 100 µM	> 100 µM	> 100 µM
COc1ccccc1-[n+]1cc(-c2ccc(-c3ccccc3)cc2)n2c1CCCCC2	12.5 µM	8.1 µM	20.2 µM	3.17 µM	11.9 µM	13.5 µM	0.159 µM	1.8 µM	11.3 µM	16.7 µM	0.869 µM	0.116 µM	0.322 µM	4.35 µM	0.288 µM	0.231 µM	0.617 µM	2.45 µM	0.51 µM	0.158 µM
CCCC1c2c(ccc3ccccc23)Oc2ccc3ccccc3c21	> 100 µM	> 100 µM	> 100 µM	> 100 µM	> 100 µM	> 100 µM		> 100 µM	> 100 µM	> 100 µM	> 100 µM									
CC1OC(n2ncc(=O)[nH]c2=O)C=CC1=O (stereo not given)	> 100 µM	> 100 µM	> 100 µM	> 100 µM	> 100 µM	> 100 µM		> 100 µM	> 100 µM	> 100 µM	40.2 µM and 48.3 µM			90.5 µM and 34.6 µM						
Cc1ccc2c(c1)nc(C(=O)c1ccco1)c(C(F)(F)F)[n+]2[O-]	> 100 µM	> 100 µM	> 100 µM	> 100 µM	> 100 µM	> 100 µM	89.1 µM	> 100 µM	> 100 µM	> 100 µM	> 100 µM	76.3 µM	> 100 µM	> 100 µM	> 100 µM	> 100 µM	48 µM	> 100 µM	> 100 µM	> 100 µM
c1ccc(Cc2nc3ccc(Nc4ncnc5ccccc45)cc3[nH]2)cc1	> 25 µM	> 25 µM	> 25 µM	> 25 µM	> 25 µM	> 25 µM	> 25 µM	> 25 µM	> 25 µM	> 25 µM	> 25 µM	> 25 µM	17.3 µM	> 25 µM	> 25 µM	> 25 µM	16.2 µM	14.8 µM	> 25 µM	> 25 µM
O=C(O)c1ccc2c(c1)Cc1cc([N+](=O)[O-])ccc1-2	> 100 µM	> 100 µM	> 100 µM	> 100 µM	> 100 µM	> 100 µM		> 100 µM	> 100 µM	> 100 µM	> 100 µM									
CC(=O)Nc1ccc(/C=C/[N+](=O)[O-])cc1	7.97 µM	3.91 µM	> 19.6 µM	26.7 µM	6.07 µM	7.35 µM		4 µM	9.44 µM	17.6 µM	17.7 µM									
N[C@@H](Cc1c[nH]c2ccccc12)C(=O)NC1CCN(C(=O)c2c[nH]c3ccccc23)CC1	> 100 µM	> 100 µM	> 100 µM	> 100 µM	> 100 µM	> 100 µM	> 100 µM	> 100 µM	> 100 µM	> 100 µM	> 100 µM	69.2 µM	96.1 µM	> 100 µM	84.8 µM	36.3 µM	64.2 µM	> 100 µM	> 100 µM	77.5 µM
Cc1c(C#N)cccc1-c1cc(-c2cn(Cc3cccc(C(C)(C)O)n3)nn2)nc(N)n1	> 100 µM	> 100 µM	> 100 µM	> 100 µM	> 100 µM	> 100 µM	12 µM	57.9 µM	> 100 µM	> 100 µM	> 100 µM	9.69 µM	28.2 µM	23.2 µM	47.4 µM	32.1 µM	14.4 µM	28.3 µM	26.9 µM	31.3 µM
CSc1nc(NC2OCC(OC(C)=O)C(OC(C)=O)C2OC(C)=O)c2c(OC(C)=O)c(C)c(=O)oc2n1 (stereo not given)	> 100 µM	> 100 µM	> 100 µM	> 100 µM	> 100 µM	> 100 µM		> 100 µM	> 100 µM	> 100 µM	> 100 µM									
Cc1c(N=Nc2ccc([N+](=O)[O-])cc2)nc2scc(-c3ccccc3)n12	> 100 µM	> 100 µM	> 92.2 µM	> 100 µM	> 100 µM	> 100 µM		> 100 µM	> 100 µM	> 100 µM	> 100 µM									
O=C(O)c1cc2ccccc2c(O)c1O	35 µM	14.9 µM	42.6 µM	30.4 µM	30.7 µM	34.7 µM		13 µM	31.8 µM	38.5 µM	3.78 µM									

Structure (SMILES)	TGI (OVCAR-4 ovarian)	TGI (LOX IMVI melanoma)	TGI (HCT-15 colon)	TGI (KM12 colon)	TGI (HCT-116 colon)	TGI (IGROV1 ovarian)	GI50 (UACC-62 melanoma)	TGI (UACC-62 melanoma)	TGI (ACHN renal)	TGI (A549 NSCLC)	TGI (MALME-3M melanoma)	GI50 (OVCAR-4 ovarian)	GI50 (LOX IMVI melanoma)	GI50 (HCT-15 colon)	GI50 (KM12 colon)	GI50 (HCT-116 colon)	GI50 (IGROV1 ovarian)	GI50 (ACHN renal)	GI50 (A549 NSCLC)	GI50 (MALME-3M melanoma)
COc1ccc(/C=N/N=C(\N)NO)cc1OC	> 100 µM	> 100 µM	> 100 µM	> 100 µM	> 100 µM	> 100 µM		72.1 µM	> 100 µM	95.8 µM	> 100 µM									
CCCCn1c2cc(OCc3cn(-c4ccc(Cl)cc4)nn3)ccc2c2ccnc(C)c21	25.5 µM	12.3 µM	> 33.3 µM	> 33.3 µM	13.2 µM	> 33.3 µM	4.96 µM	11.8 µM	10.3 µM	> 33.3 µM	14.5 µM	5.95 µM	5.91 µM	6.74 µM	10.1 µM	5.11 µM	9.02 µM	5.06 µM	8 µM	5.98 µM
C(=N\Nc1ccccn1)/c1ccccn1		> 100 µM	> 100 µM	> 100 µM	> 100 µM	> 100 µM	0.327 µM	2.28 µM		> 100 µM	2.69 µM	0.26 µM	0.319 µM	0.368 µM	0.47 µM	0.303 µM	0.355 µM	0.294 µM	0.501 µM	0.293 µM
CC(O)/C=C/C(CCC(C)CO)C(C)C (stereo not given)	> 100 µM	> 100 µM	> 100 µM	> 100 µM	> 100 µM	> 100 µM		> 100 µM	> 100 µM	> 100 µM	> 100 µM									
O=C(/C=C/c1cccnc1)NCCCCC1CCN(C(=O)c2ccccc2)CC1	> 100 µM	> 100 µM	> 100 µM	> 100 µM	> 100 µM	> 100 µM	70.3 µM and > 58 µM	> 100 µM	> 100 µM	> 100 µM	> 100 µM	> 66 µM and 26.2 µM	> 100 µM	< 0.01 µM	0.0145 µM and < 0.0118 µM	< 0.01 µM	> 47.3 µM	> 100 µM	0.166 µM	> 86.5 µM
CCCC[C@H]1C(=O)O[C@H](C)[C@H](NC(=O)c2cccc(NC=O)c2O)C(=O)O[C@@H](C)[C@@H]1OC(=O)CC(C)C	63.4 µM	19 µM	22 µM	30.8 µM	19.5 µM	41.9 µM		22.1 µM	36.1 µM	29.5 µM	50.9 µM									
Cc1ccc(C(=O)Nc2ccc(CN3CCN(C)CC3)c(C(F)(F)F)c2)cc1C#Cc1cnc(N)cc1C#N	1.42 µM	0.522 µM	0.762 µM	0.716 µM	0.642 µM	0.276 µM	0.031 µM	0.452 µM	0.555 µM	0.958 µM	0.187 µM	0.0998 µM	0.0394 µM	0.13 µM	0.122 µM	0.0852 µM	0.0265 µM	0.074 µM	0.233 µM	0.0276 µM
C=C1C(=O)O[C@H]2[C@H]1CC/C(COC(=O)NCc1cc3ccccc3[nH]1)=C\CC[C@@]1(C)O[C@@H]21	7.63 µM	2.61 µM	3.32 µM	12.8 µM	2.77 µM	3.46 µM	1.62 µM	3.2 µM	2.75 µM	27.2 µM	3.58 µM	2.2 µM	1.26 µM	1.54 µM	3.3 µM	1.37 µM	1.46 µM	1.38 µM	10.3 µM	1.81 µM
Cc1cccc(C(C)(C)C)c1NC(=O)C(=O)C(C(=O)/C=C\c1ccccc1)C1OC(=O)c2ccccc21 (stereo not given)	> 100 µM	> 100 µM	> 100 µM	> 100 µM	> 100 µM	> 100 µM		> 100 µM	> 100 µM	> 100 µM	> 100 µM									
O=Cc1c(-c2cc(O)ccc2O)nc2sccn12	32.9 µM	33.5 µM	39.3 µM	20.5 µM	27.3 µM	29.5 µM	10.6 µM	32 µM	22.6 µM	> 100 µM	25 µM	14.5 µM	8.94 µM	12.5 µM	5.05 µM	14 µM	9.04 µM	9.85 µM	25.7 µM	10.9 µM
COC(=O)C(CCS(=O)(=O)CC(=O)C(=O)Nc1cccc(C(C)=O)c1)C(=O)OC	> 100 µM	> 100 µM	> 100 µM	> 100 µM	> 100 µM	> 100 µM		> 100 µM	> 100 µM	> 100 µM	> 100 µM									
C=C1[C@@H](C)[C@H]2[C@H](Cc3ccccc3)NC(=O)[C@]23OC(=O)/C=C/[C@H](O)CCC[C@@H](C)C/C=C/[C@H]3[C@@H]1O	> 100 µM	39.6 µM	93.2 µM	> 100 µM	> 100 µM	78.9 µM		66.2 µM	> 57.4 µM	> 97 µM	> 89 µM									
O=C(/C=C/c1ccc(OCC(=O)N2CCN(c3ccccc3)CC2)cc1)c1ccc(Cl)cc1	> 97.7 µM	> 100 µM	> 100 µM	> 100 µM	> 100 µM	> 100 µM		> 95.7 µM	69.7 µM	> 100 µM	> 100 µM									
CCCCCCCCCC(=O)CC(=O)c1ccc(O)cc1O	> 100 µM	38.7 µM	> 100 µM	61 µM	66.6 µM	> 100 µM		43 µM	89.3 µM	> 100 µM	> 100 µM									
CC1=C([Se]CC(OC(=O)CC[Se]c2ccccc2)C(=O)NCCCCCC(=O)OCc2ccccc2)C(=O)c2ccccc2C1=O (stereo not given)	6.56 µM	4.28 µM	21.6 µM	5.45 µM	6.53 µM	4.11 µM	1.83 µM	4.39 µM	13.8 µM	6.72 µM	5.92 µM	2.28 µM	1.81 µM	3.85 µM	2.27 µM	2.12 µM	1.31 µM	3.18 µM	2.56 µM	2.31 µM
